{"source": "paper PMC8344263", "about": "“Tetrahydroquinazole-based secondary sulphonamides as carbonic anhydrase inhibitors: synthesis, biological evaluation against isoforms I, II, IV, and IX, and computational studies” (Journal of Enzyme Inhibition and Medicinal Chemistry, 2021)", "key": {"hCA I": {"biological_target": "hCA I (Homo sapiens, UniProt P00915)", "sequence (P00915 whole entry)": "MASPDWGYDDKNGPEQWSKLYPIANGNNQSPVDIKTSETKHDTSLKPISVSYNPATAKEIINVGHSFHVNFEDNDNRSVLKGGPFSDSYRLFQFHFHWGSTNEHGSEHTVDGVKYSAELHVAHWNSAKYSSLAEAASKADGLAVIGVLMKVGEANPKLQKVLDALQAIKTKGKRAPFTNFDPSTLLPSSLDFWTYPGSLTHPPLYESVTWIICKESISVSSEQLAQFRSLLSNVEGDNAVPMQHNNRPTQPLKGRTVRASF", "experiment": "stopped-flow CO2 hydrase assay, hCA I", "conditions": "for Ki ratio CA I/CA IX: selectivity for hCA IX over hCA I", "description": "(§1) An Applied Photophysics stopped-flow instrument was used for assaying the CA catalysed CO2 hydration activity[28]. […] The uncatalysed rates were determined in the same manner and subtracted from the total observed rates. Stock solutions of inhibitors (10 mM) were prepared in distilled-deionised water with 10% of DMSO and dilutions up to 0.01 µM were done thereafter with the assay buffer. The inhibitor and enzyme solutions were preincubated together for 15 min (standard assay at room temperature) prior to assay, to allow for the formation of the E-I complex. The inhibition constants were obtained by non-linear least-squares methods using PRISM 3 and the Cheng–Prusoff equation and represent the mean from at least three different determinations."}, "hCA II": {"biological_target": "hCA II (Homo sapiens, UniProt P00918)", "experiment": "stopped-flow CO2 hydrase assay, hCA II", "conditions": "for Ki ratio CA II/CA IX: selectivity for hCA IX over hCA II", "description": "as §1"}, "hCA IV": {"biological_target": "hCA IV (Homo sapiens, UniProt P22748)", "sequence (P22748 19-312)": "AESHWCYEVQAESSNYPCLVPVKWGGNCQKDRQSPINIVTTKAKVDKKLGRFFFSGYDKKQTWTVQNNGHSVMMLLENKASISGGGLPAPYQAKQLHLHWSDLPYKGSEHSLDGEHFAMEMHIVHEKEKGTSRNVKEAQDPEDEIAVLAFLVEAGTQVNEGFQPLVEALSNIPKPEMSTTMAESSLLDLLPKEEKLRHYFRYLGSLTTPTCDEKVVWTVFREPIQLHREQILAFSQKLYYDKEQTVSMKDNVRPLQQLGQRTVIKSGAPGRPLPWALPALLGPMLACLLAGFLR", "experiment": "stopped-flow CO2 hydrase assay, hCA IV", "conditions": "for Ki ratio CA IV/CA IX: selectivity for hCA IX over hCA IV", "description": "as §1"}, "hCA IX": {"biological_target": "hCA IX (Homo sapiens, UniProt Q16790)", "experiment": "stopped-flow CO2 hydrase assay, hCA IX", "conditions": "mean from three assays, errors ±5–10%", "description": "as §1"}}, "note": "Several values for one entry are separate records, joined by “and”; a condition that tells them apart may be missing. Identical values can stand only once."}
{"molecule": "CC1(C)CC(=O)c2cnc(Nc3ccc(S(=O)(=O)Nc4ccc([N+](=O)[O-])cc4)cc3)nc2C1", "note": "[Compound 11, 4-((7,7-Dimethyl-5-oxo-5,6,7,8-tetrahydroquinazolin-2-yl)amino)-N-(4-nitrophenyl)benzenesulfonamide]", "values": [{"measurement": "melting point", "value": "264 to 266", "unit": "°C"}, {"measurement": "Ki", "setting": "hCA I", "value": 62, "unit": "µM"}, {"measurement": "Ki", "setting": "hCA II", "value": 6.9, "unit": "µM"}, {"measurement": "Ki", "setting": "hCA IV", "value": "> 100", "unit": "µM"}, {"measurement": "Ki", "setting": "hCA IX", "value": "> 100", "unit": "µM"}]}
{"molecule": "COc1ccc(NS(=O)(=O)c2ccc(Nc3ncc4c(n3)CCCC4=O)cc2)cc1", "note": "[Compound 2, N-(4-methoxyphenyl)-4-((5-oxo-5,6,7,8-tetrahydroquinazolin-2-yl)amino)benzenesulfonamide]", "values": [{"measurement": "melting point", "value": "233 to 235", "unit": "°C"}, {"measurement": "Ki", "setting": "hCA I", "value": "> 100", "unit": "µM"}, {"measurement": "Ki", "setting": "hCA II", "value": 50.3, "unit": "µM"}, {"measurement": "Ki", "setting": "hCA IV", "value": "> 100", "unit": "µM"}, {"measurement": "Ki", "setting": "hCA IX", "value": 0.46, "unit": "µM"}]}
{"molecule": "O=C1CC(c2ccccc2)Cc2nc(Nc3ccc(S(=O)(=O)Nc4ccccc4)cc3)ncc21", "note": "(centres unmarked) [Compound 5, 4-((5-Oxo-7-phenyl-5,6,7,8-tetrahydroquinazolin-2-yl)amino)-N-phenylbenzenesulfonamide]", "values": [{"measurement": "melting point", "value": "111 to 113", "unit": "°C"}, {"measurement": "Ki", "setting": "hCA I", "value": "> 100", "unit": "µM"}, {"measurement": "Ki ratio CA I/CA IX", "setting": "hCA I", "value": "> 222"}, {"measurement": "Ki", "setting": "hCA II", "value": "> 100", "unit": "µM"}, {"measurement": "Ki", "setting": "hCA IV", "value": "> 100", "unit": "µM"}, {"measurement": "Ki ratio CA IV/CA IX", "setting": "hCA IV", "value": "> 222"}, {"measurement": "Ki", "setting": "hCA IX", "value": 0.45, "unit": "µM"}]}
{"molecule": "O=C1CC(c2ccccc2)Cc2nc(Nc3ccc(S(=O)(=O)Nc4ccc([N+](=O)[O-])cc4)cc3)ncc21", "note": "(centres unmarked) [Compound 7, N-(4-nitrophenyl)-4-((5-oxo-7-phenyl-5,6,7,8-tetrahydroquinazolin-2-yl)amino)benzenesulfonamide]", "values": [{"measurement": "melting point", "value": "118 to 120", "unit": "°C"}, {"measurement": "Ki", "setting": "hCA I", "value": "> 100", "unit": "µM"}, {"measurement": "Ki ratio CA I/CA IX", "setting": "hCA I", "value": "> 75.2"}, {"measurement": "Ki", "setting": "hCA II", "value": 67.5, "unit": "µM"}, {"measurement": "Ki ratio CA II/CA IX", "setting": "hCA II", "value": 50.7}, {"measurement": "Ki", "setting": "hCA IV", "value": "> 100", "unit": "µM"}, {"measurement": "Ki ratio CA IV/CA IX", "setting": "hCA IV", "value": "> 75.2"}, {"measurement": "Ki", "setting": "hCA IX", "value": 1.33, "unit": "µM"}]}
{"molecule": "Cc1ccc(NS(=O)(=O)c2ccc(Nc3ncc4c(n3)CCCC4=O)cc2)cc1", "note": "[Compound 4, 4-((5-Oxo-5,6,7,8-tetrahydroquinazolin-2-yl)amino)-N-(4-tolyl)benzenesulfonamide]", "values": [{"measurement": "melting point", "value": "272 to 274", "unit": "°C"}, {"measurement": "Ki", "setting": "hCA I", "value": "> 100", "unit": "µM"}, {"measurement": "Ki ratio CA I/CA IX", "setting": "hCA I", "value": "> 96 and >100 [CA I/CA IX]^b>96"}, {"measurement": "Ki", "setting": "hCA II", "value": "> 100", "unit": "µM"}, {"measurement": "Ki ratio CA II/CA IX", "setting": "hCA II", "value": "> 96 and >100 [CA II/CA IX]^b>96"}, {"measurement": "Ki", "setting": "hCA IV", "value": "> 100", "unit": "µM"}, {"measurement": "Ki ratio CA IV/CA IX", "setting": "hCA IV", "value": "> 96 and >100 [CA IV/CA IX]^b>96"}, {"measurement": "Ki", "setting": "hCA IX", "value": 1.04, "unit": "µM"}]}
{"molecule": "O=C1CCCc2nc(Nc3ccc(S(=O)(=O)Nc4ccccc4)cc3)ncc21", "note": "[Compound 1, 4-((5-Oxo-5,6,7,8-tetrahydroquinazolin-2-yl)amino)-N-phenylbenzenesulfonamide]", "values": [{"measurement": "melting point", "value": "281 to 283", "unit": "°C"}, {"measurement": "Ki", "setting": "hCA I", "value": 89.1, "unit": "µM"}, {"measurement": "Ki", "setting": "hCA II", "value": 41.2, "unit": "µM"}, {"measurement": "Ki", "setting": "hCA IV", "value": "> 100", "unit": "µM"}, {"measurement": "Ki", "setting": "hCA IX", "value": 0.48, "unit": "µM"}]}
{"molecule": "COc1ccc(NS(=O)(=O)c2ccc(Nc3ncc4c(n3)CC(c3ccccc3)CC4=O)cc2)cc1", "note": "(centres unmarked) [Compound 6, N-(4-methoxyphenyl)-4-((5-oxo-7-phenyl-5,6,7,8-tetrahydroquinazolin-2-yl)amino)benzenesulfonamide]", "values": [{"measurement": "melting point", "value": "103 to 105", "unit": "°C"}, {"measurement": "Ki", "setting": "hCA I", "value": 34, "unit": "µM"}, {"measurement": "Ki ratio CA I/CA IX", "setting": "hCA I", "value": 19.6}, {"measurement": "Ki", "setting": "hCA II", "value": 11.5, "unit": "µM"}, {"measurement": "Ki ratio CA II/CA IX", "setting": "hCA II", "value": 6.6}, {"measurement": "Ki", "setting": "hCA IV", "value": "> 100", "unit": "µM"}, {"measurement": "Ki ratio CA IV/CA IX", "setting": "hCA IV", "value": "> 57.8"}, {"measurement": "Ki", "setting": "hCA IX", "value": 1.73, "unit": "µM"}]}
{"molecule": "O=C1CCCc2nc(Nc3ccc(S(=O)(=O)Nc4ccc([N+](=O)[O-])cc4)cc3)ncc21", "note": "[Compound 3, N-(4-nitrophenyl)-4-((5-oxo-5,6,7,8-tetrahydroquinazolin-2-yl)amino)benzenesulfonamide]", "values": [{"measurement": "melting point", "value": "264 to 266", "unit": "°C"}, {"measurement": "Ki", "setting": "hCA I", "value": "> 100", "unit": "µM"}, {"measurement": "Ki", "setting": "hCA II", "value": "> 100", "unit": "µM"}, {"measurement": "Ki", "setting": "hCA IV", "value": "> 100", "unit": "µM"}, {"measurement": "Ki", "setting": "hCA IX", "value": 0.42, "unit": "µM"}]}
{"molecule": "NS(=O)(=O)c1ccc(Nc2ncc3c(n2)CCCC3=O)cc1", "note": "[Compound 16a, 4-((5-oxo-5,6,7,8-tetrahydroquinazolin-2-yl)amino)benzenesulfonamide]", "values": [{"measurement": "melting point", "value": "294 to 296", "unit": "°C"}]}
{"molecule": "CC1(C)CC(=O)c2cnc(Nc3ccc(S(N)(=O)=O)cc3)nc2C1", "note": "[Compound 16c, 4-((5-oxo-7,7-dimethyl-5,6,7,8-tetrahydroquinazolin-2-yl)amino)benzenesulfonamide]", "values": [{"measurement": "melting point", "value": "258 to 260", "unit": "°C"}]}
{"molecule": "Cc1ccc(NS(=O)(=O)c2ccc(Nc3ncc4c(n3)CC(c3ccccc3)CC4=O)cc2)cc1", "note": "(centres unmarked) [Compound 8, 4-((5-Oxo-7-phenyl-5,6,7,8-tetrahydroquinazolin-2-yl)amino)-N-(4-tolyl)benzenesulfonamide]", "values": [{"measurement": "melting point", "value": "83 to 85", "unit": "°C"}, {"measurement": "Ki", "setting": "hCA I", "value": 46.1, "unit": "µM"}, {"measurement": "Ki", "setting": "hCA II", "value": 13, "unit": "µM"}, {"measurement": "Ki", "setting": "hCA IV", "value": "> 100", "unit": "µM"}, {"measurement": "Ki", "setting": "hCA IX", "value": 15.7, "unit": "µM"}]}
{"molecule": "COc1ccc(NS(=O)(=O)c2ccc(Nc3ncc4c(n3)CC(C)(C)CC4=O)cc2)cc1", "note": "[Compound 10, 4-((7,7-Dimethyl-5-oxo-5,6,7,8-tetrahydroquinazolin-2-yl)amino)-N-(4-methoxyphenyl)benzenesulfonamide]", "values": [{"measurement": "melting point", "value": "210 to 212", "unit": "°C"}, {"measurement": "Ki", "setting": "hCA I", "value": 24.7, "unit": "µM"}, {"measurement": "Ki", "setting": "hCA II", "value": 5.1, "unit": "µM"}, {"measurement": "Ki", "setting": "hCA IV", "value": 78.1, "unit": "µM"}, {"measurement": "Ki", "setting": "hCA IX", "value": 48.1, "unit": "µM"}]}
{"molecule": "NS(=O)(=O)c1ccc(Nc2ncc3c(n2)CC(c2ccccc2)CC3=O)cc1", "note": "(centres unmarked) [Compound 16b, 4-((5-oxo-7-phenyl-5,6,7,8-tetrahydroquinazolin-2-yl)amino)benzenesulfonamide]", "values": [{"measurement": "melting point", "value": "214 to 215", "unit": "°C"}]}
{"molecule": "Cc1ccc(NS(=O)(=O)c2ccc(Nc3ncc4c(n3)CC(C)(C)CC4=O)cc2)cc1", "note": "[Compound 12, 4-((7,7-Dimethyl-5-oxo-5,6,7,8-tetrahydroquinazolin-2-yl)amino)-N-(p-tolyl)benzenesulfonamide]", "values": [{"measurement": "melting point", "value": "246 to 248", "unit": "°C"}, {"measurement": "Ki", "setting": "hCA I", "value": 84.9, "unit": "µM"}, {"measurement": "Ki", "setting": "hCA II", "value": 22.4, "unit": "µM"}, {"measurement": "Ki", "setting": "hCA IV", "value": 62.1, "unit": "µM"}, {"measurement": "Ki", "setting": "hCA IX", "value": 19.3, "unit": "µM"}]}
{"molecule": "CC1(C)CC(=O)c2cnc(Nc3ccc(S(=O)(=O)Nc4ccccc4)cc3)nc2C1", "note": "[Compound 9, 4-((7,7-Dimethyl-5-oxo-5,6,7,8-tetrahydroquinazolin-2-yl)amino)-N-phenylbenzenesulfonamide]", "values": [{"measurement": "melting point", "value": "215 to 217", "unit": "°C"}, {"measurement": "Ki", "setting": "hCA I", "value": 70.5, "unit": "µM"}, {"measurement": "Ki", "setting": "hCA II", "value": 7.4, "unit": "µM"}, {"measurement": "Ki", "setting": "hCA IV", "value": 91.1, "unit": "µM"}, {"measurement": "Ki", "setting": "hCA IX", "value": 47.3, "unit": "µM"}]}
